{"source": "a compilation of properties of binary mixtures (doi:10.1016/j.molliq.2020.112644)", "assay": "xn = mol fraction of the nth substance listed", "conditions": "100 kPa, x2 = 0.571"}
{"smiles": "O=C1c2ccccc2C(=O)C1(O)O", "note": "+ CCCC[N+](CCCC)(CCCC)CCCC.O=S(=O)([O-])O", "values": [{"measurement": "speed of sound", "setting": "293.15 K", "result": 2074.6, "unit": "m/s"}, {"measurement": "speed of sound", "setting": "298.15 K", "result": 2026.2, "unit": "m/s"}, {"measurement": "speed of sound", "setting": "303.15 K", "result": 1974.8, "unit": "m/s"}, {"measurement": "electrical conductivity", "setting": "308.15 K", "result": 0.0001, "unit": "S/m"}, {"measurement": "speed of sound", "setting": "308.15 K", "result": 1920.7, "unit": "m/s"}, {"measurement": "electrical conductivity", "setting": "313.15 K", "result": 0.0002, "unit": "S/m"}, {"measurement": "speed of sound", "setting": "313.15 K", "result": 1859, "unit": "m/s"}, {"measurement": "electrical conductivity", "setting": "318.15 K", "result": 0.0003, "unit": "S/m"}, {"measurement": "speed of sound", "setting": "318.15 K", "result": 1802.5, "unit": "m/s"}, {"measurement": "electrical conductivity", "setting": "323.15 K", "result": 0.0006, "unit": "S/m"}, {"measurement": "speed of sound", "setting": "323.15 K", "result": 1740.4, "unit": "m/s"}, {"measurement": "viscosity", "setting": "323.15 K", "result": 48000, "unit": "mPa·s"}, {"measurement": "electrical conductivity", "setting": "333.15 K", "result": 0.0018, "unit": "S/m"}, {"measurement": "speed of sound", "setting": "333.15 K", "result": 1629.2, "unit": "m/s"}, {"measurement": "viscosity", "setting": "333.15 K", "result": 15800, "unit": "mPa·s"}, {"measurement": "viscosity", "setting": "338.15 K", "result": 11000, "unit": "mPa·s"}]}
